Results reported in the NIST ThermoML archive (doi:10.1016/j.jct.2013.05.029).
Numbers after ± are expanded uncertainties.

Test: refractive index (other wavelength) (dimensionless); xn = mol fraction of the nth substance listed
Details: 101 kPa, Liquid, Wavelength=633 nm, Standard Abbe refractometry

For CCCCCCCCCC [decane] + COC(=O)OC, the refractive index (280.97 K, x2 = 0.517) was 1.4023 ± 0.002, the refractive index (280.97 K, x2 = 0.915) was 1.3807 ± 0.0021 and the refractive index (281.95 K, x2 = 0.537) was 1.4011 ± 0.002. It also gave a refractive index (281.95 K, x2 = 0.913) of 1.3805 ± 0.002, a refractive index (283 K, x2 = 0.549) of 1.4002 ± 0.002 and a refractive index (283 K, x2 = 0.903) of 1.3808 ± 0.002. For the same molecule, the refractive index (284.42 K, x2 = 0.581) was 1.3983 ± 0.002, the refractive index (284.42 K, x2 = 0.89) was 1.3811 ± 0.002 and the refractive index (285.51 K, x2 = 0.615) was 1.3964 ± 0.0021. It also gave a refractive index (285.51 K, x2 = 0.876) of 1.3817 ± 0.0021, a refractive index (286.06 K, x2 = 0.63) of 1.3954 ± 0.0021 and a refractive index (286.06 K, x2 = 0.867) of 1.382 ± 0.002. For the same molecule, the refractive index (286.31 K, x2 = 0.641) was 1.3948 ± 0.002, the refractive index (286.31 K, x2 = 0.859) was 1.3825 ± 0.002 and the refractive index (286.44 K, x2 = 0.65) was 1.3943 ± 0.002. The refractive index (286.44 K, x2 = 0.855) was 1.3827 ± 0.002, the refractive index (286.64 K, x2 = 0.663) was 1.3936 ± 0.0021 and the refractive index (286.64 K, x2 = 0.849) was 1.383 ± 0.002. For the same molecule, the refractive index (286.84 K, x2 = 0.671) was 1.3932 ± 0.0021, the refractive index (286.84 K, x2 = 0.842) was 1.3834 ± 0.002 and the refractive index (286.94 K, x2 = 0.677) was 1.3928 ± 0.0021. It also gave a refractive index (286.94 K, x2 = 0.837) of 1.3837 ± 0.002, a refractive index (287.03 K, x2 = 0.689) of 1.3922 ± 0.0021 and a refractive index (287.03 K, x2 = 0.831) of 1.3841 ± 0.0026. The refractive index (287.13 K, x2 = 0.692) was 1.392 ± 0.0021, the refractive index (287.13 K, x2 = 0.827) was 1.3843 ± 0.0024 and the refractive index (287.21 K, x2 = 0.703) was 1.3914 ± 0.002. For the same molecule, the refractive index (287.21 K, x2 = 0.708) was 1.3911 ± 0.0021, the refractive index (287.21 K, x2 = 0.819) was 1.3847 ± 0.0023 and the refractive index (287.21 K, x2 = 0.824) was 1.3844 ± 0.0023. The refractive index (287.23 K, x2 = 0.705) was 1.3913 ± 0.002, the refractive index (287.23 K, x2 = 0.712) was 1.3909 ± 0.0021 and the refractive index (287.23 K, x2 = 0.815) was 1.385 ± 0.0022. For the same molecule, the refractive index (287.23 K, x2 = 0.82) was 1.3847 ± 0.0036, the refractive index (287.26 K, x2 = 0.716) was 1.3907 ± 0.0021 and the refractive index (287.26 K, x2 = 0.817) was 1.3849 ± 0.0021. The refractive index (287.27 K, x2 = 0.712) was 1.3909 ± 0.0021, the refractive index (287.27 K, x2 = 0.813) was 1.3851 ± 0.0023 and the refractive index (287.28 K, x2 = 0.716) was 1.3907 ± 0.0021. For the same molecule, the refractive index (287.28 K, x2 = 0.817) was 1.3849 ± 0.0021, the refractive index (287.29 K, x2 = 0.716) was 1.3907 ± 0.0021 and the refractive index (287.29 K, x2 = 0.809) was 1.3853 ± 0.0021. It also gave a refractive index (287.31 K, x2 = 0.72) of 1.3905 ± 0.0021, a refractive index (287.31 K, x2 = 0.814) of 1.385 ± 0.0022 and a refractive index (287.32 K, x2 = 0.72) of 1.3905 ± 0.0021. For the same molecule, the refractive index (287.32 K, x2 = 0.723) was 1.3903 ± 0.0021, the refractive index (287.32 K, x2 = 0.729) was 1.39 ± 0.0022 and the refractive index (287.32 K, x2 = 0.804) was 1.3857 ± 0.0039. For the same molecule, the refractive index (287.32 K, x2 = 0.806) was 1.3855 ± 0.0022, the refractive index (287.32 K, x2 = 0.809) was 1.3853 ± 0.002 and the refractive index (287.35 K, x2 = 0.725) was 1.3902 ± 0.0021. The refractive index (287.35 K, x2 = 0.731) was 1.3899 ± 0.0021, the refractive index (287.35 K, x2 = 0.735) was 1.3896 ± 0.002 and the refractive index (287.35 K, x2 = 0.741) was 1.3893 ± 0.0021. The refractive index (287.35 K, x2 = 0.796) was 1.3861 ± 0.0021, the refractive index (287.35 K, x2 = 0.799) was 1.3859 ± 0.002 and the refractive index (287.35 K, x2 = 0.803) was 1.3857 ± 0.0035. It also gave a refractive index (287.35 K, x2 = 0.809) of 1.3853 ± 0.0021, a refractive index (287.36 K, x2 = 0.737) of 1.3895 ± 0.003 and a refractive index (287.36 K, x2 = 0.798) of 1.386 ± 0.002. For the same molecule, the refractive index (287.37 K, x2 = 0.737) was 1.3895 ± 0.0021, the refractive index (287.37 K, x2 = 0.741) was 1.3893 ± 0.0021 and the refractive index (287.37 K, x2 = 0.79) was 1.3865 ± 0.0021. The refractive index (287.37 K, x2 = 0.796) was 1.3861 ± 0.002.
